Results published in article PMC9730296, “High-Throughput Steady-State Enzyme Kinetics Measured in a Parallel Droplet Generation and Absorbance Detection Platform” (Analytical Chemistry, 2022).

System: T1, SN243
T1 construct: purified
Test: pNP release, absorbance […] nm in microfluidic droplets
Type: biochemical, metagenome: source not printed
Details: 100 mM Tris pH 8.0, 150 mM NaCl, room temperature, substrate in DMSO

Km (detection points 1-4 only) | Km (mean of 12 datasets) | Structure (SMILES)
– | 36.8 ± 9 mM | O=[N+]([O-])c1ccc(O[C@@H]2O[C@H](CO)[C@@H](O)[C@H](O)[C@H]2O)cc1 [pNP-β-Glc]
– | 21.9 ± 1.6 mM | O=[N+]([O-])c1ccc(O[C@@H]2OC[C@@H](O)[C@H](O)[C@H]2O)cc1 [pNP-β-Xyl]

More lines, now with the values behind:

Structure (SMILES) | Km (detection points 1-4 only) | Km (mean of 12 datasets)
O=C(O)[C@H]1O[C@@H](Oc2ccc([N+](=O)[O-])cc2)[C@H](O)[C@@H](O)[C@@H]1O [pNP-β-GlcA] | 0.015 mM | –
O=[N+]([O-])c1ccc(O[C@@H]2O[C@H](CO)[C@H](O)[C@H](O)[C@H]2O)cc1 [pNP-β-Gal] | – | 75.8 ± 7.7 mM
O=C(O)C1OC(Oc2ccc([N+](=O)[O-])cc2)C(O)C(O)C1O (stereo not drawn) [pNP-β-GalA] | – | 1.6 ± 0.3 mM
